The source of these data is ChEMBL document CHEMBL6087464, “Design, Synthesis, and Biological Evaluation of 3,4-Dihydroisoquinolin-1(2H)-one Derivatives as Protein Arginine Methyltransferase 5 Inhibitors for the Treatment of Non-Hodgkin's Lymphoma” (J Med Chem, 2025).

For orientation: pIC50 means −log10 of the IC50, conventionally taken in molar units. One may read the Cmax as the highest concentration seen after dosing. For orientation: half-life means the time in which the quantity being followed falls by half. Usually Vd stands for a proportionality between amount in the body and measured concentration, not a real space. By IC50 is commonly meant the point on the concentration scale where inhibition reaches its midpoint. As a reminder, the MRT last is a mean duration of stay, worked out from the concentration-time curve.

A short description of data set [1]: Toxicity in female SCID.BG […] mouse xenografted with human Z138 cells assessed as body weight loss at 12.5 to 50 mg/kg, po administered twice a day for 21 days. The class given is organism-based. The conditions noted are these: in vivo, 504 h, dose 12.5-50 mg/kg, time 21 day. (Xenograft models place foreign cells or tissue in a host animal.)
For data set [2], the target named is Cytochrome P450 2B6 (Homo sapiens, UniProt P20813). In words: Inhibition of CYP2B6 (unknown origin). The class given is ADME.
Cytochrome P450 2B6, sequence (P20813 whole entry): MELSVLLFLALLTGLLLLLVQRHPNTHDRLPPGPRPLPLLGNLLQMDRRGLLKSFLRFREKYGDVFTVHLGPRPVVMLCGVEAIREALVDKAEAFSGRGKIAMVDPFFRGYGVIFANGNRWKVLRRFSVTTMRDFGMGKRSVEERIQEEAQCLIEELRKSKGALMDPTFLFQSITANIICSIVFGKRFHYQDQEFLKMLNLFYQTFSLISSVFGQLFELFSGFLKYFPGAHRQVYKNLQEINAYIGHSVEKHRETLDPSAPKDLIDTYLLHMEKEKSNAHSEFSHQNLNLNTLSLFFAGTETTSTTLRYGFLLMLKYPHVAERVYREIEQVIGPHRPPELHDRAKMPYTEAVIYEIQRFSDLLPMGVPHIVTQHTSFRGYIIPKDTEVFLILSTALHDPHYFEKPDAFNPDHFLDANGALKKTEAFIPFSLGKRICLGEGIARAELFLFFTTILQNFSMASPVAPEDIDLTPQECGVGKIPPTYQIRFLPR
Data set [3] deals with Z-138. Put plainly: Induction of apoptosis in human Z138 cells assessed as late apoptotic cells at 50.0 nM incubated for 168 hrs by Annexin V-FITC/PI staining based flow cytometric analysis (reference value: 0.37 %). The class given is functional. A general note: In flow cytometry, cells or beads pass a laser one at a time.
Data set [4] deals with Z-138. Put plainly: Antiproliferative activity against PRMT5 knockout human Z138 cells measured after 7 days by CellTiter-Glo luminescence cell viability assay. The conditions noted are these: Z-138, 168 h. The class given is functional, cell-based. (In general: ATP-based viability assays read luminescence as a measure of living cells.)
Data set [5] concerns the target Protein arginine N-methyltransferase 1 (Homo sapiens, UniProt Q99873). In words: Inhibition of PRMT1 (unknown origin).
The target in data set [6] is T1, Histone-arginine methyltransferase CARM1 (Homo sapiens, UniProt Q86X55).
T1 sequence (Q86X55 whole entry): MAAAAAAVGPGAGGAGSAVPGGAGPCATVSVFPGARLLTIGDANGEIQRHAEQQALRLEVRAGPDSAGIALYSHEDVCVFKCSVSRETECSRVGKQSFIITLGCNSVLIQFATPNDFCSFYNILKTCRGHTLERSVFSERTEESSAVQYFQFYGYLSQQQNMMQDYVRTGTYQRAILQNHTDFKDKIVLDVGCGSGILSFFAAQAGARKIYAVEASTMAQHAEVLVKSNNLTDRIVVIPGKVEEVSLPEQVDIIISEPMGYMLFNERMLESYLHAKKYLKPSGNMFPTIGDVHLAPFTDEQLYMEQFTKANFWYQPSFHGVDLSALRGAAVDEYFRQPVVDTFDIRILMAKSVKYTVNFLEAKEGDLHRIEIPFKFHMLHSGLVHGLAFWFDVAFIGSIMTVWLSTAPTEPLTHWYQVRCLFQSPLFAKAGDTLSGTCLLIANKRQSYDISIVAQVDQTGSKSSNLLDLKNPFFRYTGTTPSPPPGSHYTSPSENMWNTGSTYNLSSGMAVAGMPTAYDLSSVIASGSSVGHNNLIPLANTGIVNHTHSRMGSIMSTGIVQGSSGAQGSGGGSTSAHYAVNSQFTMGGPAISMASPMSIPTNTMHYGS
Put plainly: Inhibition of PRMT4 (unknown origin).

A short description of data set [7]: Cmax in Sprague-Dawley rat at 2 mg/kg, iv by LC-MS/MS analysis. The conditions noted are these: in vivo. The class given is ADME, organism-based.
Data set [8] in a line: Protein binding in dog plasma. The class given is ADME, cell-free, Canis lupus familiaris. The conditions noted are these: read-out: PPB (converted).
The nature of data set [9]: Half-life in Sprague-Dawley rat at 2 mg/kg, iv by LC-MS/MS analysis. The class given is ADME, organism-based. The conditions noted are these: in vivo.
Data set [10] is described as follows: Cmax in Sprague-Dawley rat at 10 mg/kg, po by LC-MS/MS analysis. The class given is ADME, organism-based. The conditions noted are these: Sprague-Dawley, in vivo, read-out: Cmax.
In data set [11] the test system is Z-138. In words: Induction of apoptosis in human Z138 cells assessed as necrotic cells at 10.0 nM incubated for 168 hrs by Annexin V-FITC/PI staining based flow cytometric analysis (reference value: 3.54 %). The class given is functional.
Data set [12] is described as follows: Volume of distribution in Sprague-Dawley rat at 2 mg/kg, iv by LC-MS/MS analysis. The conditions noted are these: in vivo. The class given is ADME, organism-based.
Data set [13] can be described thus: Hematological toxicity in human CD34-positive hematopoietic stem/progenitor cell supplemented with myeloid lineage assessed as reduction in cell viability incubated for 14 days by luminometric analysis. The class given is cell-based.
For data set [14], the target named is T2, Cytochrome P450 3A4 (Homo sapiens, UniProt P08684). In words: Inhibition of CYP3A4 (unknown origin) using testosterone as substrate. The class given is ADME.
T2 sequence (P08684 whole entry): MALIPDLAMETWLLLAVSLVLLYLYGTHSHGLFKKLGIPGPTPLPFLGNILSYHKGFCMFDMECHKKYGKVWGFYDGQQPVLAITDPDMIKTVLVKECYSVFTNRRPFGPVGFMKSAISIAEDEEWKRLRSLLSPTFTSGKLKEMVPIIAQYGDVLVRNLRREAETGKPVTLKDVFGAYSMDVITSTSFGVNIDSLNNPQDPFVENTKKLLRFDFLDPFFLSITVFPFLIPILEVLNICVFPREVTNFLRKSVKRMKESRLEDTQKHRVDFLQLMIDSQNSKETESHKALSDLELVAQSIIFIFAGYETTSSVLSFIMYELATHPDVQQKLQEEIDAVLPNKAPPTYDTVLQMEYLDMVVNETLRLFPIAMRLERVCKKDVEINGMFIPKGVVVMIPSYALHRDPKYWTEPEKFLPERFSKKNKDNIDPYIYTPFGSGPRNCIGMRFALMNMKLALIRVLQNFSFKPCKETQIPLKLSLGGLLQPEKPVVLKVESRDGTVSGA
For data set [15], the target named is Protein arginine N-methyltransferase 5 (Homo sapiens) (UniProt O14744). In words: Inhibition of PRMT5 in human Z138 cells assessed as decrease in symmetric dimethyl arginine level incubated for 48 hrs by Western blot analysis. The class given is cell-based. The conditions noted are these: dose 0.005-5 µM.
Protein arginine N-methyltransferase 5 (Homo sapiens), sequence (O14744 whole entry): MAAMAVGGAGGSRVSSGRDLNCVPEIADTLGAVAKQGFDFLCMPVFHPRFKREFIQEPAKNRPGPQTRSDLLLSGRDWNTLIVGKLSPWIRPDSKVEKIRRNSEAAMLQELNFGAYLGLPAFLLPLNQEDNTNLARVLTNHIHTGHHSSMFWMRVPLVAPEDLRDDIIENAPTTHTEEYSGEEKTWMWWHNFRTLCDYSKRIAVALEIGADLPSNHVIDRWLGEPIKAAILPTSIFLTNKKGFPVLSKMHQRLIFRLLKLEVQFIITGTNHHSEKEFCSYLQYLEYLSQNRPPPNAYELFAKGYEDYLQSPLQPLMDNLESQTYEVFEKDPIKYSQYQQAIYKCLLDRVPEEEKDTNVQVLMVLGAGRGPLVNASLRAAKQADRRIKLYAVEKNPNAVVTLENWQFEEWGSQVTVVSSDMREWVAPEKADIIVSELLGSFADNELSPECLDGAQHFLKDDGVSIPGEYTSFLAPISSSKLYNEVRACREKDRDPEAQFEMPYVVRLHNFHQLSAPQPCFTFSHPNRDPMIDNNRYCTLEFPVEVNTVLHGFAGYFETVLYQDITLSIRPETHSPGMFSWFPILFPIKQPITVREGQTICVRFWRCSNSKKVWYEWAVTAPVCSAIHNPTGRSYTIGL
The nature of data set [16]: Protein binding in monkey plasma. The class given is ADME, cell-free, Macaca mulatta. The conditions noted are these: rhesus monkey, read-out: PPB (converted).
Data set [17] deals with A549. In words: Antiproliferative activity against human A549 cells measured after 4 to 5 days by CCK-8 assay. The class given is functional, cell-based.
Data set [18] can be described thus: Metabolic stability in mouse liver microsomes assessed as half-life at 1 uM measured upto 240 mins. The class given is ADME, Microsome.
For data set [19], the system named is Z-138. In words: Induction of apoptosis in human Z138 cells assessed as necrotic cells at 2.0 nM incubated for 168 hrs by Annexin V-FITC/PI staining based flow cytometric analysis (reference value: 3.54 %). The class given is functional.
The nature of data set [20]: Metabolic stability in rat liver microsomes assessed as half-life at 1 uM measured upto 240 mins. The class given is ADME, Microsome.
A short description of data set [21]: Metabolic stability in monkey liver microsomes assessed as half-life at 1 uM measured upto 240 mins. The class given is ADME, Macaca mulatta, Microsome. The conditions noted are these: rhesus monkey.
For data set [22], the target named is T2, Cytochrome P450 3A4. In words: Inhibition of CYP3A4 (unknown origin) using midazolam as substrate. The class given is ADME.
The test system of data set [23] is Z-138. Put plainly: Antitumor activity against human Z138 cells xenografted in female SCID.BG nude mouse assessed as tumor growth inhibition at 50 mg/kg, po administered twice a day for 21 days relative to control. The conditions noted are these: Z-138, 504 h, time 21 day, read-out: TGI. The class given is functional.
Data set [24] is described as follows: Toxicity in Sprague-Dawley rat assessed as morphological changes in spleen at 31.25 to 125 mg/kg, po administered once a day for 14 days by H and E staining based analysis. The class given is organism-based. The conditions noted are these: in vivo, 336 h, dose 31.25-125 mg/kg, time 14 day.
Data set [25] has as its system Z-138. Put plainly: Cell cycle arrest in human Z138 cells assessed as accumulation of cells at G0/G1 phase incubated for 168 hrs by RNase A/PI staining based flow cytometric analysis. The class given is functional. The conditions noted are these: dose 0.4-50 nM.
Data set [26] can be described thus: Hematological toxicity in human CD34-positive hematopoietic stem/progenitor cell supplemented with erythroid lineage assessed as reduction in cell viability incubated for 14 days by luminometric analysis. The class given is cell-based.
Data set [27] concerns the target PRMT5/MEP50 complex (Homo sapiens, UniProt O14744). In words: Inhibition of recombinant N-terminal FLAG-tagged human full-length PRMT5/full length human MEP50 extracted from baculovirus expression system using [3H]-SAM as substrate preincubated for 15 mins followed by substrate addition and measured after 60 mins by multimode plate reader analysis.
The subject of data set [28] is Z-138. In words: Induction of apoptosis in human Z138 cells assessed as early apoptotic cells at 50.0 nM incubated for 168 hrs by Annexin V-FITC/PI staining based flow cytometric analysis (reference value: 1.68 %). The class given is functional.
Data set [29] can be described thus: MRT (0 to t) in Sprague-Dawley rat at 10 mg/kg, po by LC-MS/MS analysis. The class given is ADME, organism-based. The conditions noted are these: in vivo.
A short description of data set [30]: Toxicity in Sprague-Dawley rat assessed as morphological changes in caecum at 31.25 to 125 mg/kg, po administered once a day for 14 days by H and E staining based analysis. The class given is organism-based. The conditions noted are these: in vivo, 336 h, dose 31.25-125 mg/kg, time 14 day.
The test system of data set [31] is MOLM-13. Put plainly: Antiproliferative activity against human MOLM-13 cells measured after 4 to 5 days by CCK-8 assay. The class given is functional, cell-based.
Data set [32] is described as follows: Toxicity in Sprague-Dawley rat assessed as morphological changes in thymus at 31.25 to 125 mg/kg, po administered once a day for 14 days by H and E staining based analysis. The class given is organism-based. The conditions noted are these: in vivo, 336 h, dose 31.25-125 mg/kg, time 14 day.
Data set [33] has as its system Z-138. Put plainly: Induction of apoptosis in human Z138 cells assessed as early apoptotic cells at 10.0 nM incubated for 168 hrs by Annexin V-FITC/PI staining based flow cytometric analysis (reference value: 1.68 %). The class given is functional.

pIC50: −log10 of the molar value. Bounds are passed on as bounds.

Protein arginine N-methyltransferase 1, sequence (Q99873 whole entry): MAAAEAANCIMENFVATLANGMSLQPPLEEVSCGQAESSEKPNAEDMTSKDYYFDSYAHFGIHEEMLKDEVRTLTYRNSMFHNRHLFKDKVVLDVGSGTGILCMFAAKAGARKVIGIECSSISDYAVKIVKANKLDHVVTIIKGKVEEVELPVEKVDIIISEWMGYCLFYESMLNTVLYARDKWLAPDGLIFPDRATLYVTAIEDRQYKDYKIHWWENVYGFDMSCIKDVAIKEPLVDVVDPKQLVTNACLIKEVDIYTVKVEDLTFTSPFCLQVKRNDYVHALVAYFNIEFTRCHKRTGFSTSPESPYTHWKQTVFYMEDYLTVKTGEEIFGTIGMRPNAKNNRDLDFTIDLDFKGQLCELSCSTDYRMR
PRMT5/MEP50 complex, sequence (O14744 whole entry): as the sequence (O14744 whole entry) above
PRMT5/MEP50 complex, sequence (Q9BQA1 whole entry, further chain): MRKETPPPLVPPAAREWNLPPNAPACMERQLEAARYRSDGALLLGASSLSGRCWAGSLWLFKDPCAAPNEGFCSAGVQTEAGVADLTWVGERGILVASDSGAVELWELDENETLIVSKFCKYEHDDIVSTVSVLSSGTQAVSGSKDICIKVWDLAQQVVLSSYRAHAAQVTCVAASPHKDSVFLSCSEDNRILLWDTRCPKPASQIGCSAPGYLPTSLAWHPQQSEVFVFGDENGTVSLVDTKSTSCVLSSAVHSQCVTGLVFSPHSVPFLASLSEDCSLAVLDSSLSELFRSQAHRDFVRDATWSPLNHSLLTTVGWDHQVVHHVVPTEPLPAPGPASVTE

On to `CC(=O)N1CC2(CC(Nc3cc4c(cn3)C3(CC3)CN(C[C@H](O)CN3CCc5ccccc5C3)C4=O)C2)C1`, for which the Activity result in data set [1] is “Non-toxic”; in [3], 11.4%; in [11], 3.87%; in [19], 6.68%; in [24] it was “Non-toxic”; in [25] it was “Dose-dependent-effect”. Moreover, the Activity in [28] was 78.2%; in [30], “Non-toxic”; in data set [32] it was “Non-toxic”; in data set [33] it was 54.5%. Besides, the negative-log IC50 (pIC50) in [2] is below 4.30; in data set [4], below 5.00; in data set [5], below 5.00; in data set [6], below 5.00; in data set [14], below 4.30; in [17], 7.86. Further, the results for the negative-log IC50 (pIC50) in data set [22], in data set [27] and in [31] were below 4.30, 7.68 and 7.52, respectively. Further, the Cmax in data set [7] is 1370 ng/mL; in data set [10], 894 ng/mL. The values for the fraction unbound in data set [8] and in data set [16] were 0.0204 and 0.11, respectively. This molecule also gave a half-life in data set [9] of 0.4 h. This molecule also registered a Vd in [12] of 1.4 L/kg. The IC50 at 14 days in data set [13] came to 511 nM; in data set [26], 216 nM. Moreover, the inhibition result in [15] is “Dose-dependent-effect”. Moreover, the half-life at 1 µM in data set [18] was 1.39 h; in data set [20] it was 1.43 h; in data set [21], 0.304 h. In addition, in data set [23], the inhibition in vivo at 50 mg/kg was 106%. In addition, the MRT last in data set [29] is 1.7 h.
Take `CC(=O)N1CCC(Nc2cc(C(=O)NC[C@H](O)CN3CCc4ccccc4C3)ncn2)CC1` [PEMRAMETOSTAT]: the Activity was 7.38% in data set [3]; 5.31% in data set [11]; 2.64% in data set [19]; “Dose-dependent-effect” in data set [25]; 34.1% in data set [28]; 7.12% in data set [33]. For the same molecule, the pIC50 in data set [5] and in data set [6] was below 5.00 throughout. Further, the Cmax in [7] came to 1830 ng/mL; in [10] it was 355 ng/mL. The molecule further gave a half-life in data set [9] of 0.3 h. This molecule yielded a Vd in data set [12] of 1.4 L/kg. Moreover, the IC50 at 14 days came to 222 nM in data set [13] and 43 nM in data set [26]. The same molecule registered an MRT last in [29] of 1.1 h.
